Values quoted from earlier work, collected in patent US6376005B2, “Antimicrobial composition for food and beverage products” (The Procter & Gamble Company, priority 1997, dated 2002).

Structure (SMILES) | effectiveness against yeasts such as Zygosaccharomyces bailii (Zygosaccharomyces bailii) | effectiveness against bacteria (bacteria)
C/C=C/C=C/C(=O)[O-].[K+] [potassium sorbate] | not effective | –
C[C@@H]1C/C=C/C=C/C=C/C=C/[C@H](O[C@@H]2O[C@H](C)[C@@H](O)[C@H](N)[C@@H]2O)C[C@@H]2O[C@](O)(C[C@@H](O)C[C@H]3O[C@@H]3/C=C/C(=O)O1)C[C@H](O)[C@H]2C(=O)O [natamycin] | particularly effective | not effective
